Measurements from patent publication US20240299359A1, “PHARMACEUTICAL COMPOSITION FOR ANIMALS CONTAINING 5-HYDROXY-METHYLIMIDAZOLIDINE-2,4-DIONE COMPOUND AS ACTIVE INGREDIENT” (KYONGBO PHARM. CO., LTD., priority 2021, published 2024).
Values joined by “and” are separate entries in the source; they are usually repeats but may differ in a detail not shown here. Equal entries are not always repeated.

Tested on: beagles
Assay: 13-week repeated oral toxicity: hematological test
Assay type: in vivo, beagle
Method: Fasting was conducted the day before administration (blood test date, pre), the 4th week (day 29) after administration, the 8th week (day 57) after administration, and the 13th week (day 92) after administration, and when the remaining feed was present in the feed container 3 hours after feeding on the day of fasting, it was removed.
All subjects were fasted for 16 hours and measurements were then performed pre (before administration), 4 weeks (day 29) after administration, 8 weeks (day 57) after administration, and 13 weeks (day 92) after administration. Within 3 hours after 2 to 3 ml of blood collected from the jugular vein of each subject was injected into a CBC bottle containing EDTA, RBC, HGB, HCT, RBC indices (MCV, MCH, MCHC), and platelet count and WBC differential count were measured using an automatic hematometer.

[1] = G3 500 mg/kg, repeated administration for 13 weeks, female, group mean
[2] = G3 500 mg/kg, repeated administration for 13 weeks, female, individual animals
[3] = G3 500 mg/kg, repeated administration for 13 weeks, male, group mean
[4] = G3 500 mg/kg, repeated administration for 13 weeks, male, individual animals
[5] = G4 1,000 mg/kg group, female (F10-F12, Mean), before administration (day 0)
[6] = G4 1,000 mg/kg group, female (F10-F12, Mean), before administration (day 0), mean
[7] = G4 1,000 mg/kg group, male (M10-M12, Mean), before administration (day 0)
[8] = G4 1,000 mg/kg group, male (M10-M12, Mean), before administration (day 0), mean
[9] = G4 1,000 mg/kg, repeated administration for 13 weeks, female, group mean
[10] = G4 1,000 mg/kg, repeated administration for 13 weeks, female, individual animals
[11] = G4 1,000 mg/kg, repeated administration for 13 weeks, male, group mean
[12] = G4 1,000 mg/kg, repeated administration for 13 weeks, male, individual animals

For CN1C(=O)NC(=O)C1O (stereo not drawn) [KBP-001, 5-hydroxy-1-methylimidazolidine-2,4-dione], the MCH [1] was 23.5 pg, the MCHC [1] was 33.37 g/dL and the MCV [1] was 70.2 fL. For the same molecule, the Retic [1] was 0.59%, the “WBC Differential Counting(%) Baso” value [1] was 0.43% and the “WBC Differential Counting(%) Eos” value [1] was 3.03%. For the same molecule, the “WBC Differential Counting(%) Lymph” value [1] was 33.40%, the “WBC Differential Counting(%) Mono” value [1] was 4.37% and the “WBC Differential Counting(%) Neut” value [1] was 58.50%. The HCT [2] was 42.0% and 49.4% and 52.6%, the HGB [2] was 14.2 g/dL and 16.3 g/dL and 17.5 g/dL and the MCH [2] was 23.8 pg and 23.9 pg and 22.7 pg. For the same molecule, the MCHC [2] was 33.7 g/dL and 33.1 g/dL and 33.3 g/dL, the MCV [2] was 70.4 fL and 72 fL and 68.2 fL and the Retic [2] was 0.84% and 0.40% and 0.53%. For the same molecule, the “WBC Differential Counting(%) Baso” value [2] was 0.3% and 0.5% and 0.4%, the “WBC Differential Counting(%) Eos” value [2] was 3.2% and 2.8% and 3.1% and the “WBC Differential Counting(%) Lymph” value [2] was 37.9% and 30.3% and 32.0%. For the same molecule, the “WBC Differential Counting(%) Mono” value [2] was 4.3% and 3.5% and 5.2%, the “WBC Differential Counting(%) Neut” value [2] was 62.4% and the HCT [3] was 48.10%. For the same molecule, the HGB [3] was 16.27 g/dL, the MCH [3] was 23.8 pg and the MCHC [3] was 33.83 g/dL. For the same molecule, the MCV [3] was 70.4 fL, the Retic [3] was 0.41% and the “WBC Differential Counting(%) Baso” value [3] was 1.10%. For the same molecule, the “WBC Differential Counting(%) Eos” value [3] was 5.07%, the “WBC Differential Counting(%) Lymph” value [3] was 30.00% and the “WBC Differential Counting(%) Mono” value [3] was 7.23%. For the same molecule, the “WBC Differential Counting(%) Neut” value [3] was 55.697%, the HCT [4] was 42.2% and 49.5% and 52.6% and the HGB [4] was 14.2 g/dL and 16.9 g/dL and 17.7 g/dL. The MCH [4] was 23.5 pg and 24.4 pg and 23.6 pg, the MCHC [4] was 33.7 g/dl (2×) and 34.1 g/dl and the MCV [4] was 70 fL and 71.5 fL and 69.9 fL. The Retic [4] was 0.54% and 0.46% and 0.23%, the “WBC Differential Counting(%) Baso” value [4] was 0.3% and 0.4% and 2.6% and the “WBC Differential Counting(%) Eos” value [4] was 3.9% and 7.5% and 3.8%. For the same molecule, the “WBC Differential Counting(%) Lymph” value [4] was 23.4% and 27.1% and 39.5%, the “WBC Differential Counting(%) Mono” value [4] was 7.8% (2×) and 6.1% and the “WBC Differential Counting(%) Neut” value [4] was 64.3% and 56.8% and 46.8%. The HCT [5] was 47.7% and 44.4% and 48.4%, the HGB [5] was 16.1 g/dL and 14.9 g/dL and 16.2 g/dL and the MCH [5] was 22.9 pg and 23.2 pg and 22.2 pg. For the same molecule, the MCHC [5] was 33.7 g/dL and 33.5 g/dL, the MCV [5] was 68 fL and 69.2 fL and 66.3 fL and the Retic [5] was 1.79% and 1.14% and 0.92%. The “WBC Differential Counting Baso” value [5] was 0.5% and 0.7% and 0.9%, the “WBC Differential Counting Eos” value [5] was 3.8% and 3.2% and 2.1% and the “WBC Differential Counting Lymph” value [5] was 30.9% and 31.1% and 43.6%. The “WBC Differential Counting Mono” value [5] was 4.6% and 4.0% and 5.5%, the “WBC Differential Counting Neut” value [5] was 59.3% and 60.5% and 47.3% and the HCT [6] was 39.40%. The HGB [6] was 13.17 g/dL, the MCH [6] was 18.4 pg and the MCHC [6] was 25.57 g/dL. The MCV [6] was 55.4 fL, the Retic [6] was 0.77% and the “WBC Differential Counting Baso” value [6] was 0.74%. For the same molecule, the “WBC Differential Counting Eos” value [6] was 3.70%, the “WBC Differential Counting Lymph” value [6] was 28.17% and the “WBC Differential Counting Mono” value [6] was 4.91%. The “WBC Differential Counting Neut” value [6] was 46.85%, the HCT [7] was 45.1% and 46.8% and 43.2% and the HGB [7] was 15.0 g/dL and 15.6 g/dL and 14.5 g/dL. The MCH [7] was 22.4 pg and 22.5 pg and 21.7 pg, the MCHC [7] was 33.2 g/dL and 33.3 g/dL and 33.6 g/dL and the MCV [7] was 67.6 fL and 67.4 fL and 64.7 fL. The Retic [7] was 0.51% and 0.65% and 0.56%, the “WBC Differential Counting Baso” value [7] was 0.8% and 0.4% and 0.7% and the “WBC Differential Counting Eos” value [7] was 3.5% and 3.9% and 4.8%. For the same molecule, the “WBC Differential Counting Lymph” value [7] was 34.8% and 31.7% and 35.5%, the “WBC Differential Counting Mono” value [7] was 6.5% and 7.8% and 4.5% and the “WBC Differential Counting Neut” value [7] was 53.8% and 55.9% and 54.0%. The HCT [8] was 39.19%, the HGB [8] was 13.07 g/dL and the MCH [8] was 18.2 pg. It also gave an MCHC [8] of 27.30 g/dL, an MCV [8] of 54.9 fL and a Retic [8] of 0.74%. The “WBC Differential Counting Baso” value [8] was 0.78%, the “WBC Differential Counting Eos” value [8] was 3.68% and the “WBC Differential Counting Lymph” value [8] was 28.23%. For the same molecule, the “WBC Differential Counting Mono” value [8] was 5.10%, the “WBC Differential Counting Neut” value [8] was 46.56% and the HCT [9] was 41.40%. It also gave an HGB [9] of 14.00 g/dL, an MCH [9] of 23.3 pg and an MCHC [9] of 33.83 g/dL. The MCV [9] was 68.8 fL, the Retic [9] was 0.36% and the “WBC Differential Counting(%) Baso” value [9] was 0.40%. For the same molecule, the “WBC Differential Counting(%) Eos” value [9] was 2.07%, the “WBC Differential Counting(%) Lymph” value [9] was 36.50% and the “WBC Differential Counting(%) Mono” value [9] was 4.57%. For the same molecule, the “WBC Differential Counting(%) Neut” value [9] was 55.93%, the HCT [10] was 39.9% (2×) and 44.4% and the HGB [10] was 13.4 g/dL and 13.6 g/dL and 15.0 g/dL. The MCHC [10] was 33.5 g/dL and 34.2 g/dL and 33.8 g/dL, the MCV [10] was 69.5 fL and 68.2 fL and 68.7 fL and the Retic [10] was 0.53% and 0.27% and 0.28%. The “WBC Differential Counting(%) Baso” value [10] was 0.4% and 0.5% and 0.3%, the “WBC Differential Counting(%) Eos” value [10] was 3.1% and 0.8% and 2.3% and the “WBC Differential Counting(%) Lymph” value [10] was 31.4% and 42.6% and 35.8%. For the same molecule, the “WBC Differential Counting(%) Mono” value [10] was 3.9% (2×) and 5.9%, the “WBC Differential Counting(%) Neut” value [10] was 60.7% and 51.8% and 55.3% and the HCT [11] was 46.33%. For the same molecule, the HGB [11] was 15.80 g/dL, the MCH [11] was 23.4 pg and the MCHC [11] was 34.07 g/dL. For the same molecule, the MCV [11] was 68.6 fL, the Retic [11] was 0.31% and the “WBC Differential Counting(%) Baso” value [11] was 0.43%. For the same molecule, the “WBC Differential Counting(%) Eos” value [11] was 4.73%, the “WBC Differential Counting(%) Lymph” value [11] was 32.17% and the “WBC Differential Counting(%) Mono” value [11] was 6.07%. For the same molecule, the “WBC Differential Counting(%) Neut” value [11] was 56.33%, the HCT [12] was 43.1% and 47.6% and 48.3% and the HGB [12] was 14.4 g/dL and 16.9 g/dL and 16.1 g/dL. For the same molecule, the MCH [12] was 23.3 pg and 24.5 pg and 22.3 pg, the MCHC [12] was 33.3 g/dL and 35.5 g/dL and 33.4 g/dL and the MCV [12] was 70 fL and 69.1 fL and 66.8 fL. The Retic [12] was 0.27% and 0.32% and 0.33%, the “WBC Differential Counting(%) Baso” value [12] was 0.5% and 0.4% (2×) and the “WBC Differential Counting(%) Eos” value [12] was 4.0% and 4.4% and 5.8%. The “WBC Differential Counting(%) Lymph” value [12] was 33.7% and 29.5% and 33.2%, the “WBC Differential Counting(%) Mono” value [12] was 5.8% and 6.8% and 5.6% and the “WBC Differential Counting(%) Neut” value [12] was 55.7% and 58.6% and 54.7%.
